This note sets out measurements from ChEMBL document CHEMBL1201862, “PubChem BioAssay data set” (2004).

The structures appear in SMILES notation.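 Cells were grown in 96-well plates and exposed to each compound for 48 hours at five concentrations; endpoints were interpolated linearly between bracketing concentrations, or set to the highest concentration if not reached. At the GI50, growth is halved.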 Activity calls are given as the source filed them. Cut-off read from the data, not from the text of the source: active = GI50 up to about 1.1 µM and inactive = higher.

Test systems include CAKI-1; TK-10; SK-MEL-28; HL-60; SK-MEL-2; HOP-62; HCT-116; EKVX; K562; SR; UO-31; A549; SNB-19; OVCAR-3; SK-MEL-5; Hs-578T; MDA-MB-435; MDA-N; NCI/ADR-RES.
Common to all, as to assay: growth of human tumour cells (NCI), 48 h

`O=C1C(=O)N(c2ccc(Cl)cc2Cl)C(=O)C(=O)C1c1nc2ccccc2s1`: the GI50 with CAKI-1 is 64.1 µM (inactive); in the assay with TK-10, > 100 µM (inactive); in the assay with SK-MEL-28 it was > 87.9 µM (inactive); with HL-60 it was 23.7 µM (inactive); with SK-MEL-2 it was > 100 µM (inactive); in the assay on HOP-62 it was > 100 µM (inactive). For the same molecule, the GI50 was > 71.6 µM (inactive) with HCT-116; > 79.8 µM (inactive) with EKVX; 31 µM (inactive) with K562; 28.2 µM (inactive) in the assay with SR; > 77.4 µM (inactive) in the assay with UO-31; > 100 µM (inactive) with A549. For the same molecule, the figures for the GI50 in the assay on SNB-19, in the assay with OVCAR-3 and in the assay on SK-MEL-5 were > 100 µM (inactive), > 100 µM (inactive) and 65.2 µM (inactive), respectively.
With `COC1=CC(=O)NCCN1`, the GI50 with CAKI-1 was > 100 µM (inactive); in the assay on TK-10 it was > 100 µM (inactive); in the assay with SK-MEL-28, > 100 µM (inactive); in the assay with HL-60 it was 21 µM (inactive); with SK-MEL-2, > 100 µM (inactive); in the assay with HOP-62, > 100 µM (inactive). Moreover, the GI50 with HCT-116 was 74.3 µM (inactive); in the assay on EKVX, > 100 µM (inactive); in the assay with K562, > 100 µM (inactive); with SR it was > 100 µM (inactive); with UO-31 it was > 100 µM (inactive); in the assay on A549 it was > 100 µM (inactive). The GI50 with SNB-19, with OVCAR-3 and with SK-MEL-5 was > 100 µM (inactive) each time.
For the molecule `CCOCN1COCN/C1=N/C#N`, the GI50 with CAKI-1, in the assay on TK-10, with SK-MEL-28, with HL-60, in the assay with SK-MEL-2 and in the assay with HOP-62 was > 100 µM (inactive) in each case. The GI50 in the assay with HCT-116 is > 100 µM (inactive); with EKVX it was > 100 µM (inactive); in the assay on K562, > 100 µM (inactive); with SR, 25.8 µM (inactive); in the assay with UO-31 it was > 100 µM (inactive); in the assay with A549 it was 31.8 µM (inactive). The GI50 in the assay with SNB-19, in the assay on OVCAR-3 and with SK-MEL-5 was > 100 µM (inactive) each time.
With `CCOC(=O)CCC(NC(=O)c1ccc(/N=C/c2nc3ccccc3nc2-c2ccccc2)cc1)C(=O)OCC` (configuration not stated), the GI50 in the assay with CAKI-1, with TK-10, with SK-MEL-28, with HL-60, with SK-MEL-2 and with HOP-62 was > 100 µM (inactive) in each case. In addition, the GI50 with HCT-116, in the assay on EKVX, in the assay with K562, in the assay with SR, in the assay with UO-31 and in the assay on A549 was > 100 µM (inactive) in each case. The GI50 with SNB-19, with OVCAR-3 and in the assay with SK-MEL-5 was > 100 µM (inactive) throughout.
As to `CN(C)C(=O)/N=c1\ss/c(=N\C(=S)N(C)C)n1-c1ccccc1`, the GI50 with CAKI-1 was > 100 µM (inactive); in the assay with TK-10, 31.4 µM (inactive); in the assay with SK-MEL-28, 18.1 µM (inactive); with HL-60, 8.34 µM (inactive); with SK-MEL-2, > 57 µM (inactive); in the assay with HOP-62, > 68.9 µM (inactive). The GI50 in the assay with HCT-116 is 13.5 µM (inactive); in the assay with EKVX it was > 63.5 µM (inactive); in the assay with K562, 0.294 µM (active); with SR, 10 µM (inactive); in the assay with UO-31 it was 33 µM (inactive); in the assay with A549, 35.5 µM (inactive). In addition, the GI50 in the assay on SNB-19 is 35.6 µM (inactive); in the assay with OVCAR-3, 21.2 µM (inactive); in the assay with SK-MEL-5, 29.6 µM (inactive).
In the case of `Cc1cc(C)c(C(=O)/C=C/c2ccccc2)c(C)c1`, the GI50 in the assay with CAKI-1 is 36.5 µM (inactive); in the assay on TK-10, 47.5 µM (inactive); in the assay on SK-MEL-28, > 10 µM (inactive); with HL-60, 25.9 µM (inactive); in the assay with SK-MEL-2 it was 10.4 µM (inactive); with HOP-62 it was 34.3 µM (inactive). Besides, the GI50 with HCT-116 was 24.8 µM (inactive); with EKVX, 40.4 µM (inactive); with K562, 26.5 µM (inactive); with SR, 30.5 µM (inactive); in the assay on UO-31, 52.4 µM (inactive); in the assay on A549, 30.2 µM (inactive). In addition, the GI50 in the assay on SNB-19 was 28.5 µM (inactive); in the assay with OVCAR-3, > 10 µM (inactive); with SK-MEL-5, > 100 µM (inactive).
Take `CC(C)N(C(=O)C12C3C4C5C3C1(C#N)C5C42)C(C)C` (configuration not stated): the GI50 in the assay on CAKI-1, with TK-10, in the assay with SK-MEL-28, in the assay with HL-60, in the assay with SK-MEL-2 and in the assay on HOP-62 was > 100 µM (inactive) throughout. In addition, the GI50 in the assay with HCT-116, in the assay on EKVX, in the assay with K562, in the assay on SR, with UO-31 and in the assay on A549 was > 100 µM (inactive) each time. Moreover, the GI50 in the assay on SNB-19, with OVCAR-3 and in the assay on SK-MEL-5 was > 100 µM (inactive) in each case.
`COC(=O)c1ncc2c(=O)[nH]c3ccccc3c2c1C(=O)OC`: the GI50 in the assay with CAKI-1, with TK-10, in the assay on SK-MEL-28, in the assay on HL-60, in the assay on SK-MEL-2 and with HOP-62 was > 100 µM (inactive) throughout. In addition, the GI50 with HCT-116, in the assay on EKVX, in the assay on K562, in the assay with SR, in the assay with UO-31 and in the assay on A549 was > 100 µM (inactive) throughout. Moreover, the GI50 with SNB-19, in the assay with OVCAR-3 and with SK-MEL-5 was > 100 µM (inactive) each time.
Regarding `CCC(=O)OC1CCn2c1nc1c2C(=O)C(C)=C(NC(C)=O)C1=O` (configuration not stated), the GI50 was 1.92 µM (inactive) in the assay with CAKI-1; 5.12 µM (inactive) with TK-10; 2.22 µM (inactive) in the assay with SK-MEL-28; 0.796 µM (active) in the assay on HL-60; 1.89 µM (inactive) with SK-MEL-2; 11.7 µM (inactive) with HOP-62. Moreover, the GI50 is 1.67 µM (inactive) with HCT-116; 2.03 µM (inactive) in the assay on EKVX; 1.87 µM (inactive) in the assay on K562; 1.91 µM (inactive) in the assay with SR; 2.22 µM (inactive) with UO-31; 2.05 µM (inactive) with A549. The GI50 is 2.9 µM (inactive) with SNB-19, 0.236 µM (active) in the assay with OVCAR-3 and 1.83 µM (inactive) in the assay with SK-MEL-5.
With `CC1(C)OC(=O)[C@@](C)([C@H](O)c2ccccc2)O1`, the GI50 in the assay on CAKI-1 is 46.3 µM (inactive); in the assay on TK-10, > 100 µM (inactive); in the assay with SK-MEL-28, > 10 µM (inactive); with HL-60, 32.6 µM (inactive); with SK-MEL-2, > 100 µM (inactive); in the assay with HOP-62, > 100 µM (inactive). For the same molecule, the GI50 in the assay with HCT-116 is 93.8 µM (inactive); with EKVX, > 100 µM (inactive); with K562, 67.9 µM (inactive); with SR, 50.6 µM (inactive); in the assay on UO-31, > 100 µM (inactive); in the assay with A549, 83.2 µM (inactive). Besides, the GI50 with SNB-19 is > 100 µM (inactive); in the assay with OVCAR-3 it was 35.8 µM (inactive); in the assay on SK-MEL-5 it was 40.1 µM (inactive).
Consider `COc1ccc2cc3c4cc(OC)c(OC)cc4ccn3c2c1`, for which the GI50 with CAKI-1, in the assay with TK-10, in the assay on SK-MEL-28, in the assay on HL-60, with SK-MEL-2 and in the assay with HOP-62 was > 100 µM (inactive) each time. Besides, the GI50 with EKVX, with K562, in the assay on SR, with UO-31, in the assay on A549 and in the assay on SNB-19 was > 100 µM (inactive) throughout. Besides, in the assay on SK-MEL-5, the GI50 is > 100 µM (inactive).
`O=C(NCCOC(=O)CCCCCCCCC(=O)OCCNC(=O)NC(=O)c1cn(Cc2ccccc2)c(=O)[nH]c1=O)NC(=O)c1cn(Cc2ccccc2)c(=O)[nH]c1=O`: the GI50 in the assay with CAKI-1, in the assay with TK-10, in the assay on SK-MEL-28, in the assay on HL-60, in the assay on SK-MEL-2 and in the assay on HOP-62 was > 100 µM (inactive) in each case. The GI50 in the assay on HCT-116, in the assay with EKVX, in the assay with K562, in the assay on SR, with UO-31 and in the assay on A549 was > 100 µM (inactive) each time. Further, the GI50 in the assay with SNB-19, in the assay with OVCAR-3 and in the assay with SK-MEL-5 was > 100 µM (inactive) in each case.
As for `O=C1CCCc2ccc3c(c21)CC1(Cc2ccccc2C1)C3`, the GI50 is 25.9 µM (inactive) in the assay with Hs-578T; 27 µM (inactive) in the assay with MDA-MB-435; 69.5 µM (inactive) in the assay with TK-10; > 100 µM (inactive) in the assay on SK-MEL-2; 39.1 µM (inactive) in the assay on HOP-62; 23 µM (inactive) in the assay with HCT-116. Moreover, the GI50 was 19 µM (inactive) with MDA-N; 7.78 µM (inactive) in the assay with EKVX; 10.8 µM (inactive) in the assay with K562; 50.1 µM (inactive) with UO-31; 34.7 µM (inactive) in the assay on A549; 33.5 µM (inactive) with OVCAR-3. Further, the values for the GI50 in the assay on NCI/ADR-RES and with SK-MEL-5 were 50.6 µM (inactive) and 18.5 µM (inactive), respectively.
